We go through 2 compounds from patent publication US5506102A (priority 1993, dated 1996).

The target of assay [1] is T1, glucocorticoid receptor (GR) (Homo sapiens, UniProt P04150).
T1 sequence (P04150 1-777): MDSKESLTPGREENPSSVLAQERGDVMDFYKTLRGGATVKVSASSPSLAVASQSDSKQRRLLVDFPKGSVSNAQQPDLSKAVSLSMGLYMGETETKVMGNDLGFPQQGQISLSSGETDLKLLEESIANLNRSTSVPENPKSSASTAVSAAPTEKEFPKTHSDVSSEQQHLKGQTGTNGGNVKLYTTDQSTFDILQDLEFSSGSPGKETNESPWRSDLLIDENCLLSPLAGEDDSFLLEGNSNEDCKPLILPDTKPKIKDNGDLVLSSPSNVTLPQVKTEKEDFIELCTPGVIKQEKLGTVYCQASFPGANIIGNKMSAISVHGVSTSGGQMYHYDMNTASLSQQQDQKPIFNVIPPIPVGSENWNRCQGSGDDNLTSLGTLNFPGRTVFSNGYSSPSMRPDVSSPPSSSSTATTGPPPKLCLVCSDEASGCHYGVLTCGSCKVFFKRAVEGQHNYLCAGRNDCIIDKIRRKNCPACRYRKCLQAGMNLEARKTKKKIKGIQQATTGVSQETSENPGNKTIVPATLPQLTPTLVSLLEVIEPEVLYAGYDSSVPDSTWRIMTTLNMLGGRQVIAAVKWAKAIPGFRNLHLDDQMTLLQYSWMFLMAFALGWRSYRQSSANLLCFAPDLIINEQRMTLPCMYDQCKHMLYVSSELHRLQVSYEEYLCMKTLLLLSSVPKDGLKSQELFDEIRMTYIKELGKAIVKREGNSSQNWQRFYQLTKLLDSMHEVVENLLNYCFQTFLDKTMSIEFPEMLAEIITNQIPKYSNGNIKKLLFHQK
As to conditions: high concentrations, dexamethasone present, FIG. 8B. How it is done:
Cells were seeded in 12-well, 96-well or 10 cm tissue culture plates. […] 20 μg of DNA/ml of transfection buffer were used in each transfection reaction. In this mix, the concentration of the luciferase plasmids and that of the internal control plasmid pCH110 (Pharmacia, Inc.), which contains the gene for the β-galactosidase enzyme, remained constant ([…] of each plasmid DNA), while the receptor plasmid concentration varied as indicated for each experiment. Different amounts of receptor parental plasmid, pSV2-neo (Dr. Bert O'Malley, Baylor College of Medicine, Houston, Tex.) was included to keep constant the total amount of the SV40 enhancer vectors. pGEM4 plasmid DNA (Promega Biotech, Madison, Wis.) was added to balance the total DNA concentration to 20 g/reaction. For the 96-well plate experiments, transfections were performed on a Biomek 1000 Automated Laboratory Workstation (Beckman Instruments, Fullerton, Calif.).
Cells were seeded 24 hours prior to transfection in the fiat-bottom tissue culture plates ([…]) in phenol red-free DMEM containing 10% FCS. […] Using calcium phosphate co-precipitation, DNA solution was added dropwise with vortexing into an equal volume of 2X HBS pH 6.9 (280 mM NaCl. 50 mM HEPES, 1.5 mM Na2 HPO4) and precipitates were allowed to form for 20 minutes. Cells were transfected ( […] of DNA mix/well) for 6 hours and then washed with phosphate-bufferedsaline (PBS) to remove the precipitate. Cells were incubated for an additional 24 hours in phenol red-free medium containing 10% charcoal-treated FCS, with or without hormones as indicated in the text. Cell extracts were prepared as described by Berger et al., Supra, and assayed for luciferase and β-galactosidase activities. All determinations were performed in triplicates in at least two independent experiments, and were normalized for transfection efficiency by using β-galactosidase as an internal control.

Assay [2] has as its target T2, PR-B (Homo sapiens, UniProt P06401).
T2 sequence (P06401 1-933): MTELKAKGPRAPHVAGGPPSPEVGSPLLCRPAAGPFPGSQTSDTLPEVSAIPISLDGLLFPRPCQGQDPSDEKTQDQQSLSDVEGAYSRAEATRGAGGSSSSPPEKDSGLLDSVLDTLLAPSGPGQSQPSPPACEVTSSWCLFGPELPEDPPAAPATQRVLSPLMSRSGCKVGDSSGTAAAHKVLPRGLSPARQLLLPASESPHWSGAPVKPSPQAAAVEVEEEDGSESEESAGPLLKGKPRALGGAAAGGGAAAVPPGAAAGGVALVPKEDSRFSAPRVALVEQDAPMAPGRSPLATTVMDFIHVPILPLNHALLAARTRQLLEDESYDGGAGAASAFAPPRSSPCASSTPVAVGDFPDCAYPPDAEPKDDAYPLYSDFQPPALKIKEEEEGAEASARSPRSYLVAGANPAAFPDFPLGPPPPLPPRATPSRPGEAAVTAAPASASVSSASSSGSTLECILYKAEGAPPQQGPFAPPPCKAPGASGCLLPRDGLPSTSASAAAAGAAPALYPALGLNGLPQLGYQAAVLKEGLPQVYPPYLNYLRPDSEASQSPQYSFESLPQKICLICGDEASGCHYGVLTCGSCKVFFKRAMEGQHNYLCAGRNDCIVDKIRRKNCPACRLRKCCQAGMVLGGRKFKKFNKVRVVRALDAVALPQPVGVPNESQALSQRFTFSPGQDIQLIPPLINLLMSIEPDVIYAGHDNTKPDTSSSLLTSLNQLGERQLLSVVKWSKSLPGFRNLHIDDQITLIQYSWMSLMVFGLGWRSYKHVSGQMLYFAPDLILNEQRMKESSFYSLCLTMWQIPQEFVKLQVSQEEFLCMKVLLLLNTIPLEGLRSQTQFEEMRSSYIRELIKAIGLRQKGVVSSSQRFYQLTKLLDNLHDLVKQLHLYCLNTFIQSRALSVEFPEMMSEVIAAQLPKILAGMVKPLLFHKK
In words: PR-B transactivation of PRE2 tk-LUC. As to conditions: CV-1, 10^-7 M progesterone, FIG. 4A. The assay is classed as cell-based. How it is done: FIGS. 4A-4B are a series of graphs showing CV-1 ([…]) or HepG2 (FIG. 4B) cells that were transiently transfected with either […] of phPR-B or phPR-A alone, or phPR-B in the presence of increasing concentrations of phPR-A, together with 5 µg/ml of the PRE2 tk-LUC reporter and 5 µg/ml of pCH110 as an internal control. HeLa cells (FIG. 4C) were transfected with either phPR-B or phPR-A together with 5 µg/ml of the pTAT2950 reporter and 5 µg/ml of pCH110 as an internal control. […] The relative luciferase activity is calculated by dividing the normalized luciferase value at a given point by that obtained in the absence of transfected receptor or ligand. The data shown represent the mean +/- average deviation from the mean of triplicate estimations;
Both reporter plasmids were digested with XhoI and HindIII restriction enzymes and a 6.7 Kb fragment from MMTV-LUC and a 0.12 Kb fragment from PRE2 tk-CAT were isolated and ligated, resulting in a plasmid called PRE2 tk-LUC.
Cells were seeded in 12-well, 96-well or 10 cm tissue culture plates. […] 20 μg of DNA/ml of transfection buffer were used in each transfection reaction. […]

As for `CC#C[C@]1(O)CC[C@H]2[C@@H]3CCC4=CC(=O)CCC4=C3[C@@H](c3ccc(C(C)=O)cc3)C[C@@]21C` [ZK112993], in assay [1], the “direct inhibition of GR function” value is “directly inhibited GR function”.
For `CC(=O)[C@H]1CC[C@H]2[C@@H]3CCC4=CC(=O)CC[C@]4(C)[C@H]3CC[C@]12C` [progesterone], the “PR-B transcriptional activity on PRE2 tk-LUC” value in assay [2] is reported as “transcriptionally active”.
